Earlier results as cited in patent US7438896B2, “Method of skin care using lipoic and ascorbic acids” (N.V. Perricone LLC, priority 1995, dated 2008).

Legend:
[1] = test system: cultured human keratinocytes; conditions: compositions without serine
[2] = test system: porcine skin; conditions: compositions without serine
[3] = test system: rat edema; conditions: compared with lipoic alone or vitamin E alone
[4] = test system: insulin

Compound: O=C(O)CCCCC1CCSS1 (stereo not shown) [lipoic acid, 1,2-dithiolane-3-pentanoic acid]
- effect on ceramide production [1]: had no effect
- effect on ceramide production [2]: had no effect

Compound: O=C(O)CCCC[C@@H]1CCSS1 (single isomer, unassigned) [R-enantiomer of lipoic acid]
- anti-inflammatory effect in rat edema model [3]: superior to lipoic alone or to vitamin E alone

Compound: O=C(O)CCCC[C@H]1CCSS1 (single isomer, unassigned) [S-enantiomer]
- effect on the action of insulin [4]: decreased the effect of insulin
